The subject of data set [1] is GH3-TRE-Luc cell line. Particulars: read-out: AC50 (uM) modified / 1000, viability, 1 nM T3 present, 24 h.
Data set [2] in a line: in vitro. Particulars: rat, gh3-tre-luc cells, AC50 (uM) modified / 1000.

Structures can show the parent of a compound that is named as a salt. Where two headings read alike, the source gives them in different places. A value given as a limit tells only on which side of the number the result lay.

Turning to `O=S(=O)(O)c1ccc(N=Nc2c(O)ccc3cc(S(=O)(=O)O)ccc23)cc1` [FD&C Yellow 6], the CC50 in data set [1] (Tox21_110001=Tox21_300407) was determined as 65.1 µM. Further, in data set [2], the CC50 at 24 h amounted to 38.5 µM.
For the molecule `Cc1[nH]cnc1C[C@H]1CCc2c(C)c3ccccc3n2C1=O` [Fabesetron], the CC50 in data set [1] (Tox21_110001=Tox21_113200) was 23.5 µM. The CC50 at 24 h in data set [2] turned out to be 33.3 µM.
For the molecule `OC(c1ccc(Cl)cc1)(c1cncnc1)c1ccccc1Cl` (stereo not drawn) [Fenarimol], the CC50 in data set [1] (Tox21_110001=Tox21_300650) was 82.8 µM. Also, the CC50 at 24 h in data set [2] is above 90 µM.
Take `CC1(C)C(C(=O)OC(C#N)c2cccc(Oc3ccccc3)c2)C1(C)C` (stereo not drawn) [Fenpropathrin]: the CC50 in data set [1] (Tox21_110001=Tox21_300882) stood at 80.7 µM. Also, in data set [2], the CC50 at 24 h was above 90 µM.
Take `Oc1ccc(Cl)cc1Sc1cc(Cl)ccc1O` [Fenticlor]: the CC50 in data set [1] (Tox21_110001=Tox21_110031) amounted to 11.6 µM. For the same molecule, the CC50 at 24 h in data set [2] is 8.49 µM.
As for `N#Cc1nn(-c2c(Cl)cc(C(F)(F)F)cc2Cl)c(N)c1[S+]([O-])C(F)(F)F` (stereo not drawn) [Fipronil], the CC50 in data set [1] (Tox21_110001=Tox21_111300) is 36.1 µM. The molecule also displayed a CC50 at 24 h in data set [2] of 49.6 µM.
In the case of `O=C(Nc1cccc(C(F)(F)F)c1)c1cc(Br)cc(Br)c1O` [Fluorosalan], the CC50 in data set [1] (Tox21_110001=Tox21_112749) came to 3.92 µM. The molecule further showed a CC50 at 24 h in data set [2] of 2.69 µM.
In the case of `O=C1c2ccccc2C(=O)N1SC(Cl)(Cl)Cl` [Folpet], the CC50 in data set [1] (Tox21_110001=Tox21_301077) came out at 2.3 µM. In data set [2], this molecule showed a CC50 at 24 h of 4.47 µM.
For `CC1(C)[C@@H](O)CC[C@]2(C)[C@H]3C(=O)C=C4[C@@H]5C[C@@](C)(C(=O)O)CC[C@]5(C)CC[C@@]4(C)[C@]3(C)CC[C@@H]12` [Glycyrrhetinic acid], the values for the CC50 in data set [1] (Tox21_110001=Tox21_110804) and in data set [1] (Tox21_110001=Tox21_112726) were 24.8 µM and 19.8 µM, respectively. The same molecule gave a CC50 at 24 h in data set [2] of 28 µM.
`COC1=CC(=O)C[C@@H](C)[C@]12Oc1c(Cl)c(OC)cc(OC)c1C2=O` [Griseofulvin]: in data set [1] (Tox21_110001=Tox21_303005), the CC50 stood at 49.1 µM. Besides, the CC50 at 24 h in data set [2] is above 90 µM.
Consider `O=[N+]([O-])c1cc(N(CCO)CCO)ccc1NCCO` [HC Blue 2], for which the CC50 in data set [1] (Tox21_110001=Tox21_302947) was 91.6 µM. In addition, in data set [2], the CC50 at 24 h was above 90 µM.
Turning to `CCN(CC)C(=O)c1cc(S(=O)(=O)Cc2ccccc2)c(N2CCC(c3ccccc3)CC2)cc1N(CC)CCN(C)C` [HMR1171 trifluoroacetate (1:1)], in data set [1] (Tox21_110001=Tox21_113204), the CC50 was 3.38 µM. Also, the CC50 at 24 h in data set [2] amounted to 4.78 µM.
In the case of `CCCCCCCOC(=O)c1ccc(O)cc1` [Heptylparaben], the CC50 in data set [1] (Tox21_110001=Tox21_303458) worked out at 50.7 µM. Besides, the CC50 at 24 h in data set [2] was found to be 47.8 µM.
Consider `ClC1=C(Cl)C(Cl)(Cl)C(Cl)=C1Cl` [Hexachlorocyclopentadiene], for which the CC50 in data set [1] (Tox21_110001=Tox21_302780) turned out to be 58 µM. The molecule also returned a CC50 at 24 h in data set [2] above 90 µM.
Take `Oc1c(Cl)cc(Cl)c(Cl)c1Cc1c(O)c(Cl)cc(Cl)c1Cl` [Hexachlorophene]: the figures for the CC50 in data set [1] (Tox21_110001=Tox21_111099) and in data set [1] (Tox21_110001=Tox21_302741) were 14.8 µM and 22.4 µM, respectively. Moreover, the CC50 at 24 h in data set [2] was 17.1 µM.
Consider `CCCCCC(=O)O[C@]1(C(C)=O)CC[C@H]2[C@@H]3CCC4=CC(=O)CC[C@]4(C)[C@H]3CC[C@@]21C` [Hydroxyprogesterone caproate], for which the CC50 in data set [1] (Tox21_110001=Tox21_302333) was determined as 26.2 µM. The CC50 at 24 h in data set [2] worked out at 17.9 µM.
As for `OCCOCCN1CCN(C(c2ccccc2)c2ccc(Cl)cc2)CC1` (stereo not drawn) [Hydroxyzine], the CC50 in data set [1] (Tox21_110001=Tox21_302563) worked out at 16.6 µM. This molecule returned a CC50 at 24 h in data set [2] of 18.1 µM.
Regarding `C=CCOC(Cn1ccnc1)c1ccc(Cl)cc1Cl` (stereo not drawn) [Imazalil], the CC50 in data set [1] (Tox21_110001=Tox21_300720) stood at 79.9 µM. The molecule further had a CC50 at 24 h in data set [2] of 53.5 µM.
For the molecule `O=c1c(O)c(-c2ccc(O)cc2)oc2cc(O)cc(O)c12` [Kaempferol], the CC50 in data set [1] (Tox21_110001=Tox21_303363) stood at 50 µM. In data set [2], the CC50 at 24 h turned out to be 66.6 µM.
With `CC(CCc1ccccc1)NCC(O)c1ccc(O)c(C(N)=O)c1` (stereo not drawn) [Labetalol hydrochloride], the CC50 in data set [1] (Tox21_110001=Tox21_302725) was determined as 24.7 µM. Besides, in data set [2], the CC50 at 24 h was determined as 14.1 µM.
Consider `CCCCCCCCCCCCOC(=O)c1cc(O)c(O)c(O)c1` [Lauryl gallate], for which the CC50 in data set [1] (Tox21_110001=Tox21_303487) was 3.66 µM. Moreover, the CC50 at 24 h in data set [2] came to 2.89 µM.
As for `CCCCC/C=C\C/C=C\CCCCCCCC(=O)O` [Linoleic acid], the CC50 in data set [1] (Tox21_110001=Tox21_303080) is 58.3 µM. Besides, the CC50 at 24 h in data set [2] is above 90 µM.
With `C[C@H](CCC(=O)O)[C@H]1CC[C@H]2[C@@H]3CC[C@@H]4C[C@H](O)CC[C@]4(C)[C@H]3CC[C@]12C` [Lithocholic acid], in data set [1] (Tox21_110001=Tox21_302791), the CC50 amounted to 47.9 µM. In data set [2], the CC50 at 24 h was 24.5 µM.
Consider `CC[C@H](C)C(=O)O[C@H]1C[C@@H](C)C=C2C=C[C@H](C)[C@H](CC[C@@H]3C[C@@H](O)CC(=O)O3)[C@H]21` [Lovastatin], for which the CC50 was found to be 43 µM in data set [1] (Tox21_110001=Tox21_110888) and 67 µM in data set [1] (Tox21_110001=Tox21_300268). The molecule also showed a CC50 at 24 h in data set [2] of 73.4 µM.
`N#C/C(=C1/SC[C@@H](c2ccc(Cl)cc2Cl)S1)n1ccnc1` [Luliconazole]: the CC50 in data set [1] (Tox21_110001=Tox21_112974) turned out to be 40.6 µM. In data set [2], the CC50 at 24 h was above 50 µM.
For the molecule `CNCCCC12CCC(c3ccccc31)c1ccccc12` [Maprotiline], in data set [1] (Tox21_110001=Tox21_110200), the CC50 was 11.7 µM. Besides, the CC50 at 24 h in data set [2] was 6.11 µM.
On to `CCCCC/C=C\C/C=C\CCCCCCCC(=O)OC` [Methyl linoleate], for which the CC50 in data set [1] (Tox21_110001=Tox21_302917) stood at 74 µM. In addition, in data set [2], the CC50 at 24 h was above 90 µM.
As to `Cc1cc(C(C)(C)CC(C)(C)C)ccc1OCCOCC[N+](C)(C)Cc1ccccc1` [Methylbenzethonium chloride], the CC50 in data set [1] (Tox21_110001=Tox21_301446) turned out to be 7.92 µM. Moreover, the CC50 at 24 h in data set [2] was 9.38 µM.
For the molecule `CC[C@@]1([C@@H]2O[C@@H]([C@H]3O[C@@](O)(CO)[C@H](C)C[C@@H]3C)C[C@@H]2C)CC[C@H]([C@]2(C)CC[C@]3(C[C@H](O)[C@@H](C)[C@@H]([C@@H](C)[C@@H](OC)[C@H](C)C(=O)O)O3)O2)O1` [Monensin sodium], the CC50 in data set [1] (Tox21_110001=Tox21_113191) worked out at 0.38 µM. The same molecule showed a CC50 at 24 h in data set [2] of 0.446 µM.
For `CO/N=C1\C[C@]2(C[C@@H]3C[C@@H](C/C=C(\C)C[C@@H](C)/C=C/C=C4\CO[C@@H]5[C@H](O)C(C)=C[C@@H](C(=O)O3)[C@]45O)O2)O[C@H](/C(C)=C/C(C)C)[C@H]1C` [Moxidectin], in data set [1] (Tox21_110001=Tox21_113093), the CC50 was found to be 4.45 µM. This molecule returned a CC50 at 24 h in data set [2] of 5.14 µM.
In the case of `O=C1c2ccccc2C(=O)N1SC1CCCCC1` [N-(Cyclohexylthio)phthalimide], in data set [1] (Tox21_110001=Tox21_303596), the CC50 was found to be 23.2 µM. Moreover, the CC50 at 24 h in data set [2] stood at 37 µM.
For `CCN(CCN)c1cccc(C)c1` [N-Ethyl-N-(3-methylphenyl)ethane-1,2-diamine], in data set [1] (Tox21_110001=Tox21_303371), the CC50 came out at 69.9 µM. Also, in data set [2], the CC50 at 24 h was 61.5 µM.
Consider `c1ccc(Nc2cccc3ccccc23)cc1` [N-Phenyl-1-naphthylamine], for which, in data set [1] (Tox21_110001=Tox21_303075), the CC50 is 61.1 µM. This molecule also registered a CC50 at 24 h in data set [2] of 64.9 µM.
